The values that follow come from patent publication US7018813B2 (priority 2000, dated 2006).

The conditions of data set [1]: at 25° C.; cited from earlier work.
For data set [2] the following is noted: cited from earlier work.
Data set [3] relates to B. pertussis strain ATCC 9797 or CS87. It counts as cell-based, Bordetella pertussis.

Read-outs that look alike come from different tables or passages of the source.

For the compound `O=S(=O)([O-])[O-].[Ag+].[Ag+]` [AgSO4], in data set [1], the Ksp was 1.19 × 10^−5. For the compound `O=S(=O)([O-])[O-].[Pb+2]` [PbSO4], the Ksp in data set [1] is 1.82 × 10^−8. On to `O=S(=O)([O-])[O-].[Sr+2]` [SrSO4], for which the Ksp in data set [1] was 3.42 × 10^−7. Consider BaSO4, for which the solubility in water in data set [2] (at 25° C.) is 10.7 µM; in data set [2] (at 100° C.), 17.7 µM. Besides, in data set [1], the Ksp is reported as 1.05 × 10^−10.

For Barium chloride [BaCl2], the “amount of PT” value in data set [3] turned out to be 0.525 μg/mL/OD650.
